The target of experiment [1] is T1, HCV NS3 protease WT 1b (Hepatitis C virus genotype 1b, UniProt P26663).
T1 construct: The single-chain proteolytic domain (NS4A21-32-GSGS-NS33-631) was cloned into pET-14b; His tag (own knowledge of vector pET-14b); made in house; host or cells: Escherichia coli BL21
As to the kind of experiment: MALDI MS of intact HCV protease 1b WT incubated with compound. The format is binding. On the procedure:
Intact HCV (protease) 1bWT was incubated for 1 hr at a 10× fold excess of XVI-26 to protein. 3 ul aliquots of the samples were diluted with 10 ul of 0.1% TFA prior to micro C4 ZipTipping directly onto the MALDI target using Sinapinic acid as the desorption matrix (10 mg/mL in 0.1% TFA:Acetonitrile 50:50). […] Due to likely protein misfolding during protein purification, a small portion of the misfolded protein was not modified.
In order to determine whether the modification of the protein occurred at lysine, the pH from the above experiment was increased from 7.4 to 10.0. Because the compound lysine adduct would be an amide any increase in pH would have minimal effect on the modified protein. If however, the modification occurred at cysteine the resultant thioester bond would be unstable and the compound would hydrolyze off the protein.
Intact HCV (protease) 1bWT, C159S, and C159S/K136A were incubated for 1 hr at a 10× fold excess of XVI-26 to protein. 3 μl aliquots of the samples were diluted with 10 μl of 0.1% TFA prior to micro C4 ZipTipping directly onto the MALDI target using Sinapinic acid as the desorption matrix (10 mg/mL in 0.1% TFA:Acetonitrile 50:50).
Intact HCV (protease) WT1b was incubated for 1 hr at a 10× fold excess of XVI-1 (mw=782.87) to protein. 3 μl aliquots of the samples were diluted with 10 μl of 0.1% TFA prior to micro C4 ZipTipping directly onto the MALDI target using Sinapinic acid as the desorption matrix (10 mg/mL in 0.1% TFA:Acetonitrile 50:50). […] Due to some protein misfolding during the purification of the protein, the unfolded portion of the protein can not react with XVI-1.

The target of experiment [2] is T2, HCV NS3/4A 1b protease enzyme (wild type) (Hepatitis C virus genotype 1b, UniProt P26663).
T2 construct: 10× stocks of NS3/4A protease enzyme from Bioenza (Mountain View, Calif.); purchased Bioenza
Kind of experiment: HCV protease FRET assay (IC50_APP), wild type NS3/4A 1b. It is filed as biochemical. On the procedure: HCV Protease FRET Assay for WT and Mutated NS3/4A 1b Enzymes (IC50_APP).
The following protocol was used to generate “apparent” IC50 (IC50_APP) values as depicted in Table 6, below. Without wishing to be bound by any particular theory, it is believed that IC50_APP, contrasted with IC50 values, may provide a more useful indication of time-dependent inhibition, and are thus more representative of binding affinity. […] 5 μL of each enzyme were added to Corning (#3575) 384-well, black, microtiter plates (Corning, N.Y.) after spotting a 0.5 μL volume of 50% DMSO and serially diluted compounds prepared in 50% DMSO. Protease reactions were immediately started after enzyme addition with the addition of 45 μL of the FRET substrate and monitored for 60-90 minutes at λex485/λem520 in a Synergy plate reader from BioTek (Winooski, Vt.). At the conclusion of each assay, progress curves from each well were examined for linear reaction kinetics and fit statistics (R^2, 95% confidence intervals, absolute sum of squares). Initial velocity (0 minutes to 15+ minutes) from each reaction was determined from the slope of a plot of relative fluorescence units vs time (minutes) and then plotted against inhibitor concentration as a percent of the no inhibitor and no enzyme controls to estimate apparent IC50 from log [Inhibitor] vs Response. (Variable Slope model in GraphPad Prism from GraphPad Software (San Diego, Calif.).)

Experiment [3] addresses T3, p110β/p85α (PI3Kβ) (Homo sapiens, UniProt P42338).
T3 construct: purchased Millipore 14-603
Kind of experiment: HTRF assay, p110β/p85α. The format is biochemical. The following applies: read-out: PI3Kβ HTRF IC50 Inhibition Designation. On the procedure: The mechanics of the assay platform are best described by the vendor (Millipore, Billerica, Mass.) on their website at the following URL: http://www.millipore.com/coa/tech1/74jt4z.
Briefly, Stop solution (Stop A, #33-007 and Stop B, #33-009; 3:1 ratio) and Detection Mix (DMC, #33-015 with DMA, #33-011 and DMB, #33-013; 18:1:1 ratio) were prepared as recommended by the manufacturer ˜2 hrs prior to use. […] Lipid kinase reactions were started with the addition of 5 μL of ATP solution, mixed for 15 sec on a rotary plate shaker and incubated for 15-30 minutes at 25° C. Next, reactions were stopped with a 5 μL addition of Stop solution followed by a 5 μL volume of Detection Mix. […] At the conclusion of each assay, the HTRF ratio from fluorescence emission values for each well was calculated and % Inhibition determined from averaged controls wells. % Inhibition values for each compound re then plotted against inhibitor concentration to estimate IC50 from log [Inhibitor] vs Response, Variable Slope model in GraphPad Prism from GraphPad Software (San Diego, Calif.).
A general note: Time-resolved FRET reads energy transfer from a long-lived donor to a nearby acceptor.

The target in experiment [4] is T4, p120γ (PI3Kγ) (Homo sapiens, UniProt P48736).
T4 construct: purchased BPS Bioscience 40625
Kind of experiment: HTRF assay, p120γ. The following applies: PI3Kγ; read-out: PI3Kγ HTRF IC50 Inhibition Designation. It is filed as biochemical. The source says: The protocol below describes an end-point, competition-binding HTRF assay used to measure inherent potency of test compounds against active p110α/p85α, p110β/p85α, p120γ enzymes. The mechanics of the assay platform are best described by the vendor (Millipore, Billerica, Mass.) on their website at the following URL: http://www.millipore.com/coa/tech1/74jt4z.
Briefly, Stop solution (Stop A, #33-007 and Stop B, #33-009; 3:1 ratio) and Detection Mix (DMC, #33-015 with DMA, #33-011 and DMB, #33-013; 18:1:1 ratio) were prepared as recommended by the manufacturer ˜2 hrs prior to use. Additionally, 1× reaction buffer (4× buffer stock #33-003), a 1.4× stock of enzyme from BPS Bioscience (San Diego, Ca) or Millipore (Billerica, Mass.) with di-C8-PIP2 lipid substrate (#33-005), and a 4×ATP solution (#A7699) Sigma/Aldrich (St. Louis, Mo.) were prepared in 1×reaction buffer. 15 μL of enzyme and lipid substrate mix were pre-incubated in a Corning (#3573) 384-well, black, non-treated microtiter plate (Corning, N.Y.) for 30 min at 25° C. with a 0.5 μL volume of 50% DMSO and serially diluted compounds prepared in 50%-75% DMSO. Lipid kinase reactions were started with the addition of 5 μL of ATP solution, mixed for 15 sec on a rotary plate shaker and incubated for 15-30 minutes at 25° C. Next, reactions were stopped with a 5 μL addition of Stop solution followed by a 5 μL volume of Detection Mix. Stopped reactions were equilibrated for 1 and 18 hrs at room temperature and then read in a Synergy4 plate reader from BioTek (Winooski, Vt.) at λex330-80/λem620-35 and λem665-7.5. At the conclusion of each assay, the HTRF ratio from fluorescence emission values for each well was calculated and % Inhibition determined from averaged controls wells. % Inhibition values for each compound re then plotted against inhibitor concentration to estimate IC50 from log [Inhibitor] vs Response, Variable Slope model in GraphPad Prism from GraphPad Software (San Diego, Calif.).
Reagents Used in Optimized Protocol: • [p120γ]=1-4 nM, [ATP]=50 μM, [di-C8-PIP2]=10 μM • (40625; BPS Bioscience)

Usually IC50 stands for the concentration at which inhibition is half-maximal. For the compound `C=C[C@@H]1C[C@]1(NC(=O)[C@@H]1C[C@@H](Oc2nccc3cc(OC)ccc23)CN1C(=O)[C@H](CCC(=O)N1CCC1=O)NC(=O)OC(C)(C)C)C(=O)NS(=O)(=O)C1CC1` [XVI-1, tert-butyl (S)-1-((2S,4R)-2-((1R,2S)-1-(cyclopropylsulfonylcarbamoyl)-2-vinylcyclopropylcarbamoyl)-4-(6-methoxyisoquinolin-1-yloxy)pyrrolidin-1-yl)-1,5-dioxo-5-(2-oxoazetidin-1-yl)pentan-2-ylcarbamate], the “conversion of HCV NS3 WT1b” value in experiment [1] (1 hr, 10× fold excess) was about 72%. Also, in experiment [1] (1 hr, 10× fold excess of compound to protein), the “positive mass shift of HCV 1bWT” value is reported as 755 Da. The “MS_HCVNS3_INTACT_NS3 WT 1b 1 HR” value in experiment [1] is “G (>70% modification)”. The IC50 in experiment [2] is under 0.001 µM.

For the compound `C=C[C@@H]1C[C@]1(NC(=O)[C@@H]1CC(Oc2nccc3cc(OC)ccc23)CN1C(=O)[C@H](CCC(=O)N1CC[C@H]2C[C@@H]1C(=O)O2)NC(=O)OC(C)(C)C)C(=O)NS(=O)(=O)C1CC1` (some centres unmarked) [XVI-2], the “MS_HCVNS3_INTACT_NS3 WT 1b 1 HR” value in experiment [1] is given as “K (≤30% modification)”. For the same compound, the IC50 in experiment [2] is under 0.001 µM.

`C=C[C@@H]1C[C@]1(NC(=O)[C@@H]1CC(Oc2nccc3cc(OC)ccc23)CN1C(=O)[C@H](CCC(=O)N1C[C@@H]2CC[C@H]1C(=O)O2)NC(=O)OC(C)(C)C)C(=O)NS(=O)(=O)C1CC1` (stereo partly drawn) [XVI-3, tert-butyl(2S)-1-((2S)-2-((1R,2S)-1-(cyclopropylsulfonylcarbamoyl)-2-vinylcyclopropylcarbamoyl)-4-(6-methoxyisoquinolin-1-yloxy)pyrrolidin-1-yl)-1,5-dioxo-5-((1S,4S)-3-oxo-2-oxa-5-azabicyclo[2.2.2]octan-5-yl)pentan-2-ylcarbamate]: the “MS_HCVNS3_INTACT_NS3 WT 1b 1 HR” value in experiment [1] is reported as “K (≤30% modification)”. Also, the IC50 in experiment [2] was under 0.001 µM.

With `C=C[C@@H]1C[C@]1(NC(=O)[C@@H]1C[C@@H](OC(=O)N2Cc3cccc(F)c3C2)CN1C(=O)[C@H](CNC(=O)c1cc(C(C)=O)oc1C)NC(=O)OC(C)(C)C)C(=O)NS(=O)(=O)C1CC1` [XVI-4], the “MS_HCVNS3_INTACT_NS3 WT 1b 1 HR” value in experiment [1] is on record as “K (≤30% modification)”. The IC50 in experiment [2] lay in the range of 0.1 to 1 µM.

On to `C/C=C/S(=O)(=O)N1CCN(Cc2cc3nc(-c4cnc(N)nc4)nc(N4CCOCC4)c3s2)CC1` [XXII-25, (E)-5-(4-morpholino-6-((4-(prop-1-enylsulfonyl)piperazin-1-yl)methyl)thieno[3,2-d]pyrimidin-2-yl)pyrimidin-2-amine], for which the IC50 in experiment [3] was 0.1 to 1 µM; in experiment [4] it was 0.01 to 0.1 µM.

For the compound `CC(C)Oc1c(N2CCN(Cc3cc4nc(-c5cnc(N)nc5)nc(N5CCOCC5)c4s3)CC2)c(=O)c1=O` [XXII-26, 3-(4-((2-(2-aminopyrimidin-5-yl)-4-morpholinothieno[3,2-d]pyrimidin-6-yl)methyl)piperazin-1-yl)-4-isopropoxycyclobut-3-ene-1,2-dione], the IC50 in experiment [3] and in experiment [4] was 0.1 to 1 µM in each case.

Turning to `CC(C)Oc1c(NCC(=O)N2CCN(Cc3cc4nc(-c5cnc(N)nc5)nc(N5CCOCC5)c4s3)CC2)c(=O)c1=O` [XXII-27, 3-(2-(4-((2-(2-aminopyrimidin-5-yl)-4-morpholinothieno[3,2-d]pyrimidin-6-yl)methyl)piperazin-1-yl)-2-oxoethylamino)-4-isopropoxycyclobut-3-ene-1,2-dione], the IC50 in experiment [3] and in experiment [4] was 0.1 to 1 µM each time.

With `COC(=O)N1C(=O)CC[C@@H]1C(=O)N1CCN(Cc2cc3nc(-c4cnc(N)nc4)nc(N4CCOCC4)c3s2)CC1` [XXII-28], the IC50 in experiment [3] and in experiment [4] was 0.1 to 1 µM each time.

As for `COC(=O)N1C(=O)CC[C@H]1C(=O)N1CCN(Cc2cc3nc(-c4cnc(N)nc4)nc(N4CCOCC4)c3s2)CC1` [XXII-29, (S)-methyl 2-(4-((2-(2-aminopyrimidin-5-yl)-4-morpholinothieno[3,2-d]pyrimidin-6-yl)methyl)piperazine-1-carbonyl)-5-oxopyrrolidine-1-carboxylate], the half-inhibitory concentration (IC50) in experiment [3] and in experiment [4] was 0.1 to 1 µM in each case.

As to `Nc1ncc(-c2nc(N3CCOCC3)c3sc(CN4CCN(C(=O)C5CCSC5=O)CC4)cc3n2)cn1` (centres unmarked) [XXII-30, 3-(4-((2-(2-aminopyrimidin-5-yl)-4-morpholinothieno[3,2-d]pyrimidin-6-yl)methyl)piperazine-1-carbonyl)dihydrothiophen-2(3H)-one], the IC50 was in the range of 0.1 to 1 µM in experiment [3] and 0.01 to 0.1 µM in experiment [4].

Consider `Nc1ncc(-c2nc(N3CCOCC3)c3sc(CN4CCN(C(=O)C5CSC(=O)C5)CC4)cc3n2)cn1` (centres unmarked) [XXII-31, 4-(4-((2-(2-aminopyrimidin-5-yl)-4-morpholinothieno[3,2-d]pyrimidin-6-yl)methyl)piperazine-1-carbonyl)dihydrothiophen-2(3H)-one], for which the IC50 in experiment [3] and in experiment [4] was 0.1 to 1 µM throughout.

As for `Nc1ncc(-c2nc(N3CCOCC3)c3sc(CN4CCN(C(=O)C5CCC(=O)S5)CC4)cc3n2)cn1` (centres unmarked) [XXII-32, 5-(4-((2-(2-aminopyrimidin-5-yl)-4-morpholinothieno[3,2-d]pyrimidin-6-yl)methyl)piperazine-1-carbonyl)dihydrothiophen-2(3H)-one], the IC50 in experiment [3] and in experiment [4] was 0.1 to 1 µM each time.

These data come from patent US11542492B2 (Celgene CAR LLC, priority 2009, dated 2023).
